Tests used:
Assay in all cases: cells
COLO-320-HSR = assay type: functional, cell-based, Homo sapiens; conditions: Homo sapiens, COLO-320-HSR;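 further: growth inhibition of COLO-320-HSR cells, determined with a cell viability assay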
Description: SANGER: Inhibition of human COLO-320-HSR cell growth in a cell viability assay.

GB-1 = assay type: functional, cell-based, Homo sapiens; conditions: Homo sapiens, GB-1;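 further: growth of GB-1 cells judged by a viability assay, IC50 marks the concentration inhibiting growth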
Description: SANGER: Inhibition of human GB-1 cell growth in a cell viability assay.

NCI-H526 = assay type: functional, cell-based, Homo sapiens; conditions: Homo sapiens, NCI-H526;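 further: growth inhibition of the human NCI-H526 cell line, measured by a cell viability assay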
Description: SANGER: Inhibition of human NCI-H526 cell growth in a cell viability assay.

GCIY = assay type: functional, cell-based, Homo sapiens; conditions: Homo sapiens, GCIY;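 further: growth inhibition of the human GCIY cell line, read out by a cell viability assay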
Description: SANGER: Inhibition of human GCIY cell growth in a cell viability assay.

NCI-H1650 = assay type: functional, cell-based, Homo sapiens; conditions: Homo sapiens, NCI-H1650;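 further: growth inhibition of human NCI-H1650 cells measured by a cell viability assay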
Description: SANGER: Inhibition of human NCI-H1650 cell growth in a cell viability assay.

RS4-11 = assay type: functional, cell-based, Homo sapiens; conditions: Homo sapiens, RS4-11;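 further: growth inhibition of RS4-11 cells, read out by a cell viability assay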
Description: SANGER: Inhibition of human RS4-11 cell growth in a cell viability assay.

MHH-PREB-1 = assay type: functional, cell-based, Homo sapiens; conditions: Homo sapiens, MHH-PREB-1;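 further: cell viability assay measuring inhibition of proliferation of human MHH-PREB-1 cells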
Description: SANGER: Inhibition of human MHH-PREB-1 cell growth in a cell viability assay.

SF-268 = assay type: functional, cell-based, Homo sapiens; conditions: Homo sapiens, SF-268;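 further: growth inhibition of SF-268 cells determined with a cell viability assay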
Description: SANGER: Inhibition of human SF268 cell growth in a cell viability assay.

GR-ST = assay type: functional, cell-based, Homo sapiens; conditions: Homo sapiens, GR-ST
Description: SANGER: Inhibition of human GR-ST cell growth in a cell viability assay.

NB6 = assay type: functional, cell-based, Homo sapiens; conditions: Homo sapiens, NB6;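 further: growth inhibition of NB6 cells, read out by a cell viability assay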
Description: SANGER: Inhibition of human NB6 cell growth in a cell viability assay.

TE-9 = assay type: functional, cell-based, Homo sapiens; conditions: Homo sapiens, TE-9;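 further: cell growth inhibition, measured with a cell viability readout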
Description: SANGER: Inhibition of human TE-9 cell growth in a cell viability assay.

BB65-RCC = assay type: functional, cell-based, Homo sapiens; conditions: Homo sapiens, BB65-RCC;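 further: growth inhibition of the cell line, measured with a cell viability assay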
Description: SANGER: Inhibition of human BB65-RCC cell growth in a cell viability assay.

A498 = assay type: functional, cell-based, Homo sapiens; conditions: Homo sapiens, A498;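 further: growth inhibition of human A498 cells, read out with a cell viability assay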
Description: SANGER: Inhibition of human A498 cell growth in a cell viability assay.

KM-H2 = assay type: functional, cell-based, Homo sapiens; conditions: Homo sapiens, KM-H2;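 further: growth inhibition of KM-H2 cells, read out by a cell viability assay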
Description: SANGER: Inhibition of human KM-H2 cell growth in a cell viability assay.

8-MG-BA = assay type: functional, cell-based, Homo sapiens; conditions: Homo sapiens, 8-MG-BA;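 further: growth inhibition of 8-MG-BA cells, read out with a cell viability assay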
Description: SANGER: Inhibition of human 8-MG-BA cell growth in a cell viability assay.

CW-2 = assay type: functional, cell-based, Homo sapiens; conditions: Homo sapiens, CW-2;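 further: growth inhibition of CW-2 cells, read out by a cell viability assay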
Description: SANGER: Inhibition of human CW-2 cell growth in a cell viability assay.

no-10 = assay type: functional, cell-based, Homo sapiens; conditions: Homo sapiens;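 further: growth inhibition of no-10 cells, read out with a cell viability assay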
Description: SANGER: Inhibition of human no-10 cell growth in a cell viability assay.

MLMA = assay type: functional, cell-based, Homo sapiens; conditions: Homo sapiens, MLMA;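 further: growth inhibition of MLMA cells (human), determined through a cell viability readout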
Description: SANGER: Inhibition of human MLMA cell growth in a cell viability assay.

HAL-01 = assay type: functional, cell-based, Homo sapiens; conditions: Homo sapiens, HAL-01;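 further: growth inhibition of human HAL-01 cells, read out with a cell viability assay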
Description: SANGER: Inhibition of human HAL-01 cell growth in a cell viability assay.

JAR = assay type: functional, cell-based, Homo sapiens; conditions: Homo sapiens, JAR;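 further: growth inhibition of human JAR cells determined with a cell viability assay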
Description: SANGER: Inhibition of human JAR cell growth in a cell viability assay.

MC116 = assay type: functional, cell-based, Homo sapiens; conditions: Homo sapiens, MC116;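 further: growth inhibition of MC116 cells, read out with a cell viability assay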
Description: SANGER: Inhibition of human MC116 cell growth in a cell viability assay.

SW982 = assay type: functional, cell-based; conditions: Homo sapiens;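 further: growth inhibition of SW982 cells, read out with a cell viability assay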
Description: SANGER: Inhibition of human SW982 cell growth in a cell viability assay.

COLO-824 = assay type: functional, cell-based, Homo sapiens; conditions: Homo sapiens, COLO-824
Description: SANGER: Inhibition of human COLO-824 cell growth in a cell viability assay.

GT3TKB = assay type: functional, cell-based, Homo sapiens; conditions: Homo sapiens, GT3TKB;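 further: growth inhibition of the cell line, read out with a cell viability assay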
Description: SANGER: Inhibition of human GT3TKB cell growth in a cell viability assay.

TGW = assay type: functional, cell-based, Homo sapiens; conditions: Homo sapiens, TGW;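 further: growth inhibition of human TGW cells, read out with a cell viability assay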
Description: SANGER: Inhibition of human TGW cell growth in a cell viability assay.

LS-123 = assay type: functional, cell-based, Homo sapiens; conditions: Homo sapiens, LS-123
Description: SANGER: Inhibition of human LS-123 cell growth in a cell viability assay.

D-247MG = assay type: functional, cell-based; conditions: Homo sapiens
Description: SANGER: Inhibition of human D-247MG cell growth in a cell viability assay.

COLO-684 = assay type: functional, cell-based, Homo sapiens; conditions: Homo sapiens, COLO-684
Description: SANGER: Inhibition of human COLO-684 cell growth in a cell viability assay.

TE-11 = assay type: functional, cell-based; conditions: Homo sapiens;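 further: growth inhibition of human TE-11 cells, read out by a cell viability assay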
Description: SANGER: Inhibition of human TE-11 cell growth in a cell viability assay.

DB = assay type: functional, cell-based, Homo sapiens; conditions: Homo sapiens, DB
Description: SANGER: Inhibition of human DB cell growth in a cell viability assay.

ES8 = assay type: functional, cell-based, Homo sapiens; conditions: Homo sapiens, ES8;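 further: growth inhibition of human ES8 cells, read out with a cell viability assay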
Description: SANGER: Inhibition of human ES8 cell growth in a cell viability assay.

EOL1 = assay type: functional, cell-based, Homo sapiens; conditions: Homo sapiens, EOL1;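 further: growth inhibition of EoL-1 cells, read out by a cell viability assay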
Description: SANGER: Inhibition of human EoL-1-cell cell growth in a cell viability assay.

DEL = assay type: functional, cell-based, Homo sapiens; conditions: Homo sapiens, DEL;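 further: growth inhibition of the human DEL cell line, read out with a cell viability assay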
Description: SANGER: Inhibition of human DEL cell growth in a cell viability assay.

NMC-G1 = assay type: functional, cell-based, Homo sapiens; conditions: Homo sapiens, NMC-G1;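 further: growth inhibition of the NMC-G1 cell line, measured with a cell viability read-out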
Description: SANGER: Inhibition of human NMC-G1 cell growth in a cell viability assay.

LB1047-RCC = assay type: functional, cell-based, Homo sapiens; conditions: Homo sapiens, LB1047-RCC;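 further: inhibition of cell growth, determined with a cell viability assay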
Description: SANGER: Inhibition of human LB1047-RCC cell growth in a cell viability assay.

TGBC24TKB = assay type: functional, cell-based; conditions: Homo sapiens;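 further: growth inhibition of human TGBC24TKB cells, read out with a cell viability assay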
Description: SANGER: Inhibition of human TGBC24TKB cell growth in a cell viability assay.

SW872 = assay type: functional, cell-based, Homo sapiens; conditions: Homo sapiens, SW872;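 further: growth inhibition of SW872 cells, read out by a viability assay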
Description: SANGER: Inhibition of human SW872 cell growth in a cell viability assay.

LS-411N = assay type: functional, cell-based, Homo sapiens; conditions: Homo sapiens, LS-411N
BE-13 = assay type: functional, cell-based, Homo sapiens; conditions: Homo sapiens, BE-13;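 further: growth inhibition of human BE-13 cells, measured with a cell viability assay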
Description: SANGER: Inhibition of human BE-13 cell growth in a cell viability assay.

SCC-15 = assay type: functional, cell-based, Homo sapiens; conditions: Homo sapiens, SCC-15;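 further: growth inhibition of SCC-15 cells, read out with a cell viability assay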
Description: SANGER: Inhibition of human SCC-15 cell growth in a cell viability assay.

A253 cell line = assay type: functional, cell-based, Homo sapiens; conditions: Homo sapiens, A253;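 further: growth inhibition of A253 cells, read out with a cell viability assay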
Description: SANGER: Inhibition of human A253 cell growth in a cell viability assay.

DMS-114 = assay type: functional, cell-based, Homo sapiens; conditions: Homo sapiens, DMS-114
K5 = assay type: functional, cell-based, Homo sapiens; conditions: Homo sapiens, K5
Description: SANGER: Inhibition of human K5 cell growth in a cell viability assay.

LB2241-RCC = assay type: functional, cell-based, Homo sapiens; conditions: Homo sapiens, LB2241-RCC;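 further: cell viability assay measuring how strongly the cultured human renal carcinoma line is prevented from growing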
Description: SANGER: Inhibition of human LB2241-RCC cell growth in a cell viability assay.

MHH-NB-11 = assay type: functional, cell-based, Homo sapiens; conditions: Homo sapiens, MHH-NB-11;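 further: growth inhibition of human MHH-NB-11 cells, read out by a cell viability assay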
Description: SANGER: Inhibition of human MHH-NB-11 cell growth in a cell viability assay.

DSH1 = assay type: functional, cell-based; conditions: Homo sapiens;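 further: growth inhibition of human DSH1 cells, measured with a cell viability readout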
Description: SANGER: Inhibition of human DSH1 cell growth in a cell viability assay.

HH = assay type: functional, cell-based, Homo sapiens; conditions: Homo sapiens, HH
Description: SANGER: Inhibition of human HH cell growth in a cell viability assay.

ES3 = assay type: functional, cell-based, Homo sapiens; conditions: Homo sapiens, ES3;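 further: growth inhibition of ES3 cells, read out with a cell viability assay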
Description: SANGER: Inhibition of human ES3 cell growth in a cell viability assay.

BT-474 = assay type: functional, cell-based, Homo sapiens; conditions: Homo sapiens, BT-474
Description: SANGER: Inhibition of human BT-474 cell growth in a cell viability assay.

C2BBe1 = assay type: functional, cell-based, Homo sapiens; conditions: Homo sapiens, C2BBe1;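 further: growth inhibition of C2BBe1 cells, read out through a viability assay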
Description: SANGER: Inhibition of human C2BBe1 cell growth in a cell viability assay.

SJSA-1 = assay type: functional, cell-based, Homo sapiens; conditions: Homo sapiens, SJSA-1;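 further: growth inhibition of human SJSA-1 cells, read out through a cell viability measurement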
Description: SANGER: Inhibition of human SJSA-1 cell growth in a cell viability assay.

Structure (SMILES): O=S(=O)(O)c1ccc2cc(/N=N/c3cc(S(=O)(=O)O)c4cccnc4c3O)ccc2c1
- IC50 (COLO-320-HSR): > 16000 nM
- IC50 (GB-1): > 16000 nM
- IC50 (NCI-H526): > 16000 nM
- IC50 (GCIY): > 16000 nM
- IC50 (NCI-H1650): > 16000 nM
- IC50 (RS4-11): > 16000 nM
- IC50 (MHH-PREB-1): > 16000 nM
- IC50 (SF-268): > 16000 nM
- IC50 (GR-ST): > 16000 nM
- IC50 (NB6): 13700 nM
- IC50 (TE-9): > 16000 nM
- IC50 (BB65-RCC): > 16000 nM
- IC50 (A498): > 16000 nM
- IC50 (KM-H2): > 16000 nM
- IC50 (8-MG-BA): > 16000 nM
- IC50 (CW-2): > 16000 nM
- IC50 (no-10): > 16000 nM
- IC50 (MLMA): > 16000 nM
- IC50 (HAL-01): > 16000 nM
- IC50 (JAR): > 16000 nM
- IC50 (MC116): > 16000 nM
- IC50 (SW982): > 16000 nM
- IC50 (COLO-824): > 16000 nM
- IC50 (GT3TKB): > 16000 nM
- IC50 (TGW): > 16000 nM
- IC50 (LS-123): > 16000 nM
- IC50 (D-247MG): > 16000 nM
- IC50 (COLO-684): > 16000 nM
- IC50 (TE-11): > 16000 nM
- IC50 (DB): > 16000 nM
- IC50 (ES8): > 16000 nM
- IC50 (EOL1): > 16000 nM
- IC50 (DEL): > 16000 nM
- IC50 (NMC-G1): > 16000 nM
- IC50 (LB1047-RCC): > 16000 nM
- IC50 (TGBC24TKB): > 16000 nM
- IC50 (SW872): > 16000 nM
- IC50 (LS-411N): > 16000 nM
- IC50 (BE-13): > 16000 nM
- IC50 (SCC-15): > 16000 nM
- IC50 (A253 cell line): > 16000 nM
- IC50 (DMS-114): > 16000 nM
- IC50 (K5): > 16000 nM
- IC50 (LB2241-RCC): > 16000 nM
- IC50 (MHH-NB-11): > 16000 nM
- IC50 (DSH1): > 16000 nM
- IC50 (HH): > 16000 nM
- IC50 (ES3): > 16000 nM
- IC50 (BT-474): > 16000 nM
- IC50 (C2BBe1): > 16000 nM
- IC50 (SJSA-1): > 16000 nM

Structure (SMILES): CC(C)C[C@H](NC(=O)[C@H](Cc1ccccc1)NC(=O)c1cnccn1)B(O)O [BORTEZOMIB]
- IC50 (COLO-320-HSR): 3.92 nM
- IC50 (GB-1): 1.81 nM
- IC50 (NCI-H526): > 20 nM
- IC50 (GCIY): 1.62 nM
- IC50 (NCI-H1650): > 20 nM
- IC50 (RS4-11): > 20 nM
- IC50 (MHH-PREB-1): 4.86 nM
- IC50 (SF-268): 0.923 nM
- IC50 (GR-ST): > 20 nM
- IC50 (NB6): 8.48 nM
- IC50 (TE-9): 0.182 nM
- IC50 (BB65-RCC): 0.304 nM
- IC50 (KM-H2): > 20 nM
- IC50 (8-MG-BA): 0.25 nM
- IC50 (CW-2): 3.21 nM
- IC50 (no-10): 0.21 nM
- IC50 (MLMA): 8.85 nM
- IC50 (HAL-01): 1.18 nM
- IC50 (JAR): 16.1 nM
- IC50 (MC116): > 20 nM
- IC50 (COLO-824): > 20 nM
- IC50 (GT3TKB): 2.12 nM
- IC50 (TGW): 16.5 nM
- IC50 (LS-123): 2.02 nM
- IC50 (D-247MG): 0.413 nM
- IC50 (COLO-684): 3.66 nM
- IC50 (DB): 3.41 nM
- IC50 (ES8): 0.4 nM
- IC50 (EOL1): 18.3 nM
- IC50 (DEL): > 20 nM
- IC50 (NMC-G1): 3.68 nM
- IC50 (LB1047-RCC): 2.57 nM
- IC50 (SW872): 0.996 nM
- IC50 (LS-411N): 1.53 nM
- IC50 (BE-13): 1.93 nM
- IC50 (SCC-15): > 20 nM
- IC50 (A253 cell line): 0.208 nM
- IC50 (DMS-114): 9.62 nM
- IC50 (K5): 1.28 nM
- IC50 (LB2241-RCC): 0.804 nM
- IC50 (MHH-NB-11): 4.91 nM
- IC50 (DSH1): 0.48 nM
- IC50 (HH): 2.13 nM
- IC50 (ES3): > 20 nM
- IC50 (BT-474): > 20 nM
- IC50 (C2BBe1): 2.89 nM
- IC50 (SJSA-1): 2.21 nM
